The source of these data is the supplement of paper PMC11208160.

The nature of this data set: recombinant barcode read abundance after kanamycin selection (control-corrected) (log10(CPM+1)); higher = more efficient recombination; sequences stand for … in AGTGCAGAGAAAATCGGCCAGTTTTCTCTGCCTGCAGTCCGCATGCCGT…AGATTTATGCAGCGGACTGCCTTTCTCCCAAAGTGATAAACCGGACAGTATCATGGACCGGTTTTCCCGGTAATCCGTATTTGCAAGGTTGGTTTCACT; site = the 11-nt target. The method in brief: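 The screen was pooled in E. coli and paired targets with IS621 bridge RNA target-binding loops. Recombination efficiency is taken from barcode counts per million at recombinant junctions, averaged and adjusted against the control. Values, in the form log10(CPM+1), come from duplicate plating on chloramphenicol/ampicillin LB agar or on chloramphenicol/ampicillin/kanamycin with 0.1 mM IPTG.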
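Further: IS621 recombinase and bridge RNA in Escherichia coli cells.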

Turning to “CCTCGAGCTTGGGTTCTAACCTGTTGCGG (site TCTAGAGCTCC)”, the “recombinant barcode read abundance (log10)” value is 0.184. In the case of “CCTCGCACTTGGGTTCTAACCTGTTGCGA (site CCTAGCACTTC)”, the “recombinant barcode read abundance (log10)” value amounted to 0.126. To “CCTCGCACTTGGGTTCTAACCTGTTGCGA (site CCTCGCACTTC)” belongs 0.112; to “CCTCGCACTTGGGTTCTAACCTGTTGCGA (site CCTGGCACTTC)”, 0.0155. With “CCTCGCACTTGGGTTCTAACCTGTTGCGA (site CCTTGCACTTC)”, the “recombinant barcode read abundance (log10)” value worked out at 0.0861. The figure for “CCTCGCGCTTGGGTTCTAACCTGTTGCCT (site CCTAACGCTAG)” is 0.822. To “CCTCGCGCTTGGGTTCTAACCTGTTGCCT (site CCTCGCGCTAG)” belongs 0.354; to “CCTCGGACTTGGGTTCTAACCTGTTGCAT (site CATCGTACTAT)”, 0.0825. As to “CCTCGGACTTGGGTTCTAACCTGTTGCAT (site CCTCGGACTAT)”, the “recombinant barcode read abundance (log10)” value was 1.59. “CCTGATTCTTGGGTTCTAACCTGTTGCCT (site CCTGAATCTAG)”: the “recombinant barcode read abundance (log10)” value stood at 0.0629.

Regarding “CCTGATTCTTGGGTTCTAACCTGTTGCCT (site CCTGACTCTAG)”, the “recombinant barcode read abundance (log10)” value came out at 0.113. Regarding “CCTGATTCTTGGGTTCTAACCTGTTGCCT (site CCTGAGTCTAG)”, the “recombinant barcode read abundance (log10)” value came out at 0.107. To “CCTGATTCTTGGGTTCTAACCTGTTGCCT (site CCTGATTCTAG)” belongs 0.322. To “CCTGGACCTTGGGTTCTAACCTGTTGCTT (site CCTGGACCTAA)” belongs 1.87; to “CCTGGACCTTGGGTTCTAACCTGTTGCTT (site CCTGGTCCTAT)”, 0. “CCTGGCACTTGGGTTCTAACCTGTTGCGA (site CCTAGCACTTC)”: the “recombinant barcode read abundance (log10)” value came out at 1.45. Consider “CCTGGCACTTGGGTTCTAACCTGTTGCGA (site CCTCGCACTTC)”, for which the “recombinant barcode read abundance (log10)” value worked out at 0.0518. The figure for “CCTGGCACTTGGGTTCTAACCTGTTGCGA (site CCTGGCACTTC)” is 2.37.

For “CCTGGCACTTGGGTTCTAACCTGTTGCGA (site CCTTGCACTTC)”, the “recombinant barcode read abundance (log10)” value is 0.0559. For the sequence “CCTGGGCCTTGGGTTCTAACCTGTTGCTT (site CCTGGACCTAC)”, the “recombinant barcode read abundance (log10)” value is 0.471.

For “CCTGGGCCTTGGGTTCTAACCTGTTGCTT (site CCTGGGCCTAA)”, the “recombinant barcode read abundance (log10)” value was found to be 0.686. As to “CCTGGGGCTTGGGTTCTAACCTGTTGCCT (site CCTGGGGCTAG)”, the “recombinant barcode read abundance (log10)” value is 0.233.

For the sequence “CCTGGGGCTTGGGTTCTAACCTGTTGCCT (site CCTGGTCCTAG)”, the “recombinant barcode read abundance (log10)” value is 0.189. As to “CCTGTATCTTGGGTTCTAACCTGTTGCCT (site ACTGTATCTAG)”, the “recombinant barcode read abundance (log10)” value was 0.0208. On to “CCTGTATCTTGGGTTCTAACCTGTTGCCT (site CCTGTATCTAG)”, for which the “recombinant barcode read abundance (log10)” value worked out at 0.127.

Regarding “CCTGTATCTTGGGTTCTAACCTGTTGCCT (site GCTGTATCTAG)”, the “recombinant barcode read abundance (log10)” value came out at 0.26. To “CCTGTATCTTGGGTTCTAACCTGTTGCCT (site TCTGTATCTAG)” belongs 0.039; to “CCTTACACTTGGGTTCTAACCTGTTGCGG (site CCTGACACTCC)”, 0.063; to “CCTTACACTTGGGTTCTAACCTGTTGCGG (site CCTTACACTCC)”, 2.53. On to “CCTTACCCTTGGGTTCTAACCTGTTGCCT (site CCTTACCCTAG)”, for which the “recombinant barcode read abundance (log10)” value was 1.11. The figure for “CCTTACCCTTGGGTTCTAACCTGTTGCCT (site CCTTAGCCTAG)” is 0.0606; for “CCTTCTCCTTGGGTTCTAACCTGTTGCAT (site CCTTCTCCTAT)” it is 0.319. “CCTTCTCCTTGGGTTCTAACCTGTTGCAT (site GTACGATCTCC)”: the “recombinant barcode read abundance (log10)” value turned out to be 0.146. In the case of “CCTTGCACTTGGGTTCTAACCTGTTGCGA (site CCTAGCACTTC)”, the “recombinant barcode read abundance (log10)” value was found to be 0.0223. With “CCTTGCACTTGGGTTCTAACCTGTTGCGA (site CCTCGCACTTC)”, the “recombinant barcode read abundance (log10)” value worked out at 0.0306. On to “CCTTGCACTTGGGTTCTAACCTGTTGCGA (site CCTGGCACTTC)”, for which the “recombinant barcode read abundance (log10)” value stood at 0.0155. For the sequence “CCTTGCACTTGGGTTCTAACCTGTTGCGA (site CCTTGCACTTC)”, the “recombinant barcode read abundance (log10)” value came to 0.409. As to “CCTTGGGCTTGGGTTCTAACCTGTTGCTT (site CCTTGGGCTAA)”, the “recombinant barcode read abundance (log10)” value stood at 0.011. “CCTTGGGCTTGGGTTCTAACCTGTTGCTT (site CTTTGGCCTAA)”: the “recombinant barcode read abundance (log10)” value worked out at 0.305. For the sequence “CCTTGTACTTGGGTTCTAACCTGTTGCCT (site CCTTGTACTAG)”, the “recombinant barcode read abundance (log10)” value worked out at 0.035. Take “CCTTGTACTTGGGTTCTAACCTGTTGCCT (site CTTTGTACTAG)”: the “recombinant barcode read abundance (log10)” value worked out at 0.0491. The figure for “CCTTTACCTTGGGTTCTAACCTGTTGCCT (site ACTTTACCTAG)” is 0.136; for “CCTTTACCTTGGGTTCTAACCTGTTGCCT (site CCTTTACCTAG)” it is 0.337. In the case of “CCTTTACCTTGGGTTCTAACCTGTTGCCT (site GCTTTACCTAG)”, the “recombinant barcode read abundance (log10)” value turned out to be 0.0546. The figure for “CCTTTACCTTGGGTTCTAACCTGTTGCCT (site TCTTTACCTAG)” is 0.171; for “CGAACATCTTGGGTTCTAACCTGTTGCTT (site ACCTACCCTCC)” it is 0; for “CGAACATCTTGGGTTCTAACCTGTTGCTT (site CGAACATCTAA)” it is 0.144. Regarding “CGAACGACTTGGGTTCTAACCTGTTGCCT (site CGAACGACTAA)”, the “recombinant barcode read abundance (log10)” value amounted to 0.157.

On to “CGAACGACTTGGGTTCTAACCTGTTGCCT (site CGAACGACTAG)”, for which the “recombinant barcode read abundance (log10)” value is 0.259. The figure for “CGAACTACTTGGGTTCTAACCTGTTGCGT (site CGAACTACTAA)” is 0.22; for “CGAACTACTTGGGTTCTAACCTGTTGCGT (site CGAACTACTAC)” it is 0.143; for “CGAACTACTTGGGTTCTAACCTGTTGCGT (site CGAACTACTAG)” it is 0.109. On to “CGAACTACTTGGGTTCTAACCTGTTGCGT (site CGAACTACTAT)”, for which the “recombinant barcode read abundance (log10)” value came to 0.0569. As to “CGAAGATCTTGGGTTCTAACCTGTTGCCT (site CAAAGATCTAG)”, the “recombinant barcode read abundance (log10)” value worked out at 0.142. For “CGAAGATCTTGGGTTCTAACCTGTTGCCT (site CCAAGATCTAG)”, the “recombinant barcode read abundance (log10)” value was found to be 0.

Take “CGAAGATCTTGGGTTCTAACCTGTTGCCT (site CGAAGATCTAG)”: the “recombinant barcode read abundance (log10)” value came to 0.273. Consider “CGAAGATCTTGGGTTCTAACCTGTTGCCT (site CTAAGATCTAG)”, for which the “recombinant barcode read abundance (log10)” value stood at 0.069. Turning to “CGACACTCTTGGGTTCTAACCTGTTGCCT (site CAACACTCTAG)”, the “recombinant barcode read abundance (log10)” value came to 0.107. In the case of “CGACACTCTTGGGTTCTAACCTGTTGCCT (site CCACACTCTAG)”, the “recombinant barcode read abundance (log10)” value was found to be 0.164. With “CGACACTCTTGGGTTCTAACCTGTTGCCT (site CGACACTCTAG)”, the “recombinant barcode read abundance (log10)” value is 0.251. With “CGACACTCTTGGGTTCTAACCTGTTGCCT (site CTACACTCTAG)”, the “recombinant barcode read abundance (log10)” value was found to be 0.0214.

With “CGACAGTCTTGGGTTCTAACCTGTTGCCT (site CGACAGTCTAG)”, the “recombinant barcode read abundance (log10)” value came out at 0.687. “CGACAGTCTTGGGTTCTAACCTGTTGCCT (site TAGATTCCTTT)”: the “recombinant barcode read abundance (log10)” value is 0.201.

In the case of “CGACATACTTGGGTTCTAACCTGTTGCGT (site CGACATACTAC)”, the “recombinant barcode read abundance (log10)” value was 0.593. With “CGACATACTTGGGTTCTAACCTGTTGCGT (site GGACATGCTAC)”, the “recombinant barcode read abundance (log10)” value is 0.0511.

In the case of “CGACCCTCTTGGGTTCTAACCTGTTGCTT (site ACACCCTCTAA)”, the “recombinant barcode read abundance (log10)” value was 0.178. In the case of “CGACCCTCTTGGGTTCTAACCTGTTGCTT (site CGACCCTCTAA)”, the “recombinant barcode read abundance (log10)” value was 1.39. With “CGACCTACTTGGGTTCTAACCTGTTGCTA (site CGACCTACTTA)”, the “recombinant barcode read abundance (log10)” value was 0.088. Consider “CGACCTACTTGGGTTCTAACCTGTTGCTA (site GTACCTACTTA)”, for which the “recombinant barcode read abundance (log10)” value was 0.17. In the case of “CGACCTGCTTGGGTTCTAACCTGTTGCCT (site CGACCTGCTAG)”, the “recombinant barcode read abundance (log10)” value is 0.246.

Consider “CGACCTGCTTGGGTTCTAACCTGTTGCCT (site CGCCCTACTAG)”, for which the “recombinant barcode read abundance (log10)” value came to 0.249.

For “CGACGAACTTGGGTTCTAACCTGTTGCCT (site CGACGAACTAG)”, the “recombinant barcode read abundance (log10)” value was found to be 0.201. With “CGACGAACTTGGGTTCTAACCTGTTGCCT (site GTCAATCCTCC)”, the “recombinant barcode read abundance (log10)” value was 0.0212. For “CGACGTCCTTGGGTTCTAACCTGTTGCGG (site CGACGTCCTCC)”, the “recombinant barcode read abundance (log10)” value turned out to be 1.74. As for “CGACGTCCTTGGGTTCTAACCTGTTGCGG (site TGAAGTCCTCC)”, the “recombinant barcode read abundance (log10)” value was 0.00826.

On to “CGACTTACTTGGGTTCTAACCTGTTGCAT (site ACGGGCTCTGA)”, for which the “recombinant barcode read abundance (log10)” value was 0.103. The figure for “CGACTTACTTGGGTTCTAACCTGTTGCAT (site CGACTTACTAT)” is 0.0348.
